According to patent US20170296682A1, “DERIVATIVES OF DIBENZOTHIOPHENE IMAGING OF alpha-7 NICOTINIC ACETYLCHOLINE RECEPTORS” (THE JOHNS HOPKINS UNIVERSITY, priority 2015, published 2017):
Several values for one entry are separate records, joined by “and”; a condition that tells them apart may be missing. Equal entries are not always repeated. Where two headings read alike, the source gives them in different places.

Key:
α4β2-nAChR = α4β2-nAChR (Rattus norvegicus, UniProt P09483+P12390); experiment: Heteromeric nAChR binding assay, transfected HEK293 membranes, [3H]epibatidine
Human 5-HT3 = biological target: T1, Human 5-HT3 (Homo sapiens, UniProt P46098); experiment: 5-HT3(h) binding assay, recombinant HEK293 cells, [3H]GR65630
T1 sequence (P46098 24-478): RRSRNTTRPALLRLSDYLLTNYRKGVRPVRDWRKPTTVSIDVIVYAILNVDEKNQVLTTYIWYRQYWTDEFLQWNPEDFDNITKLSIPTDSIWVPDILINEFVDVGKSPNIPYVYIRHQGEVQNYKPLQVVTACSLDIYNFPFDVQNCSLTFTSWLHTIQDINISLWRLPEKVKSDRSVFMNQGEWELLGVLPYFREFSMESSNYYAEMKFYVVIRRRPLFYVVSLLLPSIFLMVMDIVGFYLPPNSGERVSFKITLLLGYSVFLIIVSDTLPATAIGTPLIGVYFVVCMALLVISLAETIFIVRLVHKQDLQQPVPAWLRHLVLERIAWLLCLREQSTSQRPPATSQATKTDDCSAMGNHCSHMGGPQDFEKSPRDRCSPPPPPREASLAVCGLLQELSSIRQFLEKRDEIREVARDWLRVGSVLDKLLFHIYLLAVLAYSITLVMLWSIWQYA

rat a7-nAChR = rat a7-nAChR (Rattus norvegicus, UniProt Q05941); experiment: biochemical; assay type: binding
α7-nAChR [1] = biological target: T2, α7-nAChR (Mus musculus, UniProt P49582); details: in vivo
α4β4-nAChR = biological target: T3, α4β4-nAChR (Rattus norvegicus, UniProt P09483+P12392); experiment: Heteromeric nAChR binding assay, transfected HEK293 membranes, [3H]epibatidine; details: stably transfected HEK293 cells, [3H]epibatidine (0.5 nM)
T3 construct: expressed in transfected cells

α3β4-nAChR = biological target: T4, α3β4-nAChR (Rattus norvegicus, UniProt P04757+P12392); experiment: as above; details: stably transfected HEK293 cells, [3H]epibatidine (0.5 nM)
T4 construct: expressed in transfected cells

α2β2-nAChR = α2β2-nAChR (Rattus norvegicus, UniProt P12389+P12390); experiment: as above; details: stably transfected HEK293 cells, [3H]epibatidine (0.5 nM)
α3β2-nAChR = α3β2-nAChR (Rattus norvegicus, UniProt P04757+P12390); experiment: as above; details: stably transfected HEK293 cells, [3H]epibatidine (0.5 nM)
α2β4-nAChR = biological target: T5, α2β4-nAChR (Rattus norvegicus, UniProt P12389+P12392); experiment: as above; details: stably transfected HEK293 cells, [3H]epibatidine (0.5 nM)
T5 construct: expressed in transfected cells

rat α7-nAChRs = rat α7-nAChRs (Rattus norvegicus, UniProt Q05941); assay type: cell-based
α7-nAChR [2] = biological target: α7-nAChR (Rattus norvegicus, UniProt Q05941); experiment: biochemical; assay type: binding
[3] = male, CD-1, mouse, in vivo, iv
Description: (§1) Baboon arterial blood samples were withdrawn at 5, 10, 20, 30, 60, and 90 min after ^18-FASEM injection, and plasma was analyzed by HPLC. Male CD-1 mice (25-26 g) were injected via the lateral tail veins with 37 MBq of high-specific-activity ^18-FASEM. The mice were killed by cervical dislocation at 2 and 30 min after injection, and a terminal blood sample was obtained.

[4] = 18F-ASEM radiometabolite analysis in baboon; details: baboons, 90 min after injection
Description: as §1

[5] = assay type: binding; details: read-out: human Ki α7-nAChR
α7-nAChR [6] = biological target: α7-nAChR (Homo sapiens, UniProt P36544); details: in vivo
[7] = 18F-ASEM radiometabolite analysis in mice
Description: as §1

[8] = male, human, in vivo
α7-nAChR [9] = biological target: T2, α7-nAChR; set-up: studied in mice, pigs, and non-human primates as potential α7-nAChR probes; host or cells: mouse brain (cortex) in vivo; species or system mice; details: in vivo
α7-nAChR [10] = biological target: T2, α7-nAChR; set-up: The brains were rapidly removed and dissected on ice; tissue Charles River Laboratories; host or cells: brain of live male CD-1 mice; species or system CD-1 mice; details: in vivo
a7-nAChR = details: in vivo

Chain of α7-nAChR (Rattus norvegicus, UniProt Q05941) (Q05941 23-502): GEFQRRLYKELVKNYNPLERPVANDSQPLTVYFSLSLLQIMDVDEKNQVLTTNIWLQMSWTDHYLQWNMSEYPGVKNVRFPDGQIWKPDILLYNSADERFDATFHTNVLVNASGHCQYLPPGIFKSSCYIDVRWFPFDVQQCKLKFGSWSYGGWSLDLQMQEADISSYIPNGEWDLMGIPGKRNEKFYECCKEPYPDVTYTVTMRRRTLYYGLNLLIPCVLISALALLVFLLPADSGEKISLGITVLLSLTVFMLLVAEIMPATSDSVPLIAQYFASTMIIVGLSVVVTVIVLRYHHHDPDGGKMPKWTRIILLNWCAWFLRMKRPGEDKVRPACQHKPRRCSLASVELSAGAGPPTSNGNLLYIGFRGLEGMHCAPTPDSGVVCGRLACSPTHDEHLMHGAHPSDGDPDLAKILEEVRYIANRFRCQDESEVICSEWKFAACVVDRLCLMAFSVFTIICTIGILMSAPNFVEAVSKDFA
Chain of α7-nAChR (Homo sapiens, UniProt P36544) (P36544 23-502): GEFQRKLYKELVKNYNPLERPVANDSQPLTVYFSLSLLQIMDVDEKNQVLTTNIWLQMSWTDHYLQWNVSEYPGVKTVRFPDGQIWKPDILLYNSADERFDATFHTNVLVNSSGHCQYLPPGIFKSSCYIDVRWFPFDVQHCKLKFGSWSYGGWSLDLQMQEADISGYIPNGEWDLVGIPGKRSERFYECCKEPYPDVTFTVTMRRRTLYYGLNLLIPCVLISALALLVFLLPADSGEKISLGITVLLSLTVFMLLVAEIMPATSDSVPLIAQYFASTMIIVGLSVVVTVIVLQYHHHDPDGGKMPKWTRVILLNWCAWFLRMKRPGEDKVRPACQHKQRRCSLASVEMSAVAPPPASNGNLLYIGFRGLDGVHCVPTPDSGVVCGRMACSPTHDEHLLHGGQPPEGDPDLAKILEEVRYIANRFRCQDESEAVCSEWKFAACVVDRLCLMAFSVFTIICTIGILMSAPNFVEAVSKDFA
T2 sequence (P49582 23-502): as the sequence (Q05941 23-502) above, with A402T counted along it
Chain of α4β2-nAChR (P09483 31-630): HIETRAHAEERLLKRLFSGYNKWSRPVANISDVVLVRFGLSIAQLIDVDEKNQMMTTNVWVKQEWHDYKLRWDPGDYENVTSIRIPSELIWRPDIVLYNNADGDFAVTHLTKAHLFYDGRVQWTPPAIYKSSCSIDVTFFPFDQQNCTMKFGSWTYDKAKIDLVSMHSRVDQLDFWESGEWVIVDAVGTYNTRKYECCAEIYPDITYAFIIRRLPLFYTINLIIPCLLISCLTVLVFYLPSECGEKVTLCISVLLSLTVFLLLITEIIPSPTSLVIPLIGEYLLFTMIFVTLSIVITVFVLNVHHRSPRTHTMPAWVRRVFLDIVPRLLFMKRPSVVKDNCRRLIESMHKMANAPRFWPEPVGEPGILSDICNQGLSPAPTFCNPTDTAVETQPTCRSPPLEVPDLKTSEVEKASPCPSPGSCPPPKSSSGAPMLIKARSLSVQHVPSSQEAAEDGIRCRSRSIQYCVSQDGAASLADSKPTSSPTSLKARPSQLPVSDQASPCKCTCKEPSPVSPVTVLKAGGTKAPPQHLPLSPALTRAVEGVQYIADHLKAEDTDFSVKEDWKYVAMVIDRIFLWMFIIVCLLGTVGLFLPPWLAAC
Chain of α4β2-nAChR (P12390 25-500): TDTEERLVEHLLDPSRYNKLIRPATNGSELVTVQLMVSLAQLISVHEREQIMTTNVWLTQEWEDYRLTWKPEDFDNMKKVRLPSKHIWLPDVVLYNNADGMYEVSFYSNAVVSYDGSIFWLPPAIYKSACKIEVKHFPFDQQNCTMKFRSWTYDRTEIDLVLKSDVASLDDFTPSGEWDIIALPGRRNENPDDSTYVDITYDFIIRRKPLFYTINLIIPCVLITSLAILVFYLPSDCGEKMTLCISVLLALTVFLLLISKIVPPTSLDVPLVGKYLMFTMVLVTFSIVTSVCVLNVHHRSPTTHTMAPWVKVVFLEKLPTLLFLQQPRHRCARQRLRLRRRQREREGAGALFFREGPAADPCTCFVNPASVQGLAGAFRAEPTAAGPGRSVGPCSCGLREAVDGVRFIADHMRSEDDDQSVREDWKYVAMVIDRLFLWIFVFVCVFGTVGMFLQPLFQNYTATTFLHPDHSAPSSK
Chain of rat α7-nAChRs (Q05941 23-502): as the sequence (Q05941 23-502) above
T3 sequence (P09483 31-630): as the sequence (P09483 31-630) above
T3 sequence (P12392 21-495): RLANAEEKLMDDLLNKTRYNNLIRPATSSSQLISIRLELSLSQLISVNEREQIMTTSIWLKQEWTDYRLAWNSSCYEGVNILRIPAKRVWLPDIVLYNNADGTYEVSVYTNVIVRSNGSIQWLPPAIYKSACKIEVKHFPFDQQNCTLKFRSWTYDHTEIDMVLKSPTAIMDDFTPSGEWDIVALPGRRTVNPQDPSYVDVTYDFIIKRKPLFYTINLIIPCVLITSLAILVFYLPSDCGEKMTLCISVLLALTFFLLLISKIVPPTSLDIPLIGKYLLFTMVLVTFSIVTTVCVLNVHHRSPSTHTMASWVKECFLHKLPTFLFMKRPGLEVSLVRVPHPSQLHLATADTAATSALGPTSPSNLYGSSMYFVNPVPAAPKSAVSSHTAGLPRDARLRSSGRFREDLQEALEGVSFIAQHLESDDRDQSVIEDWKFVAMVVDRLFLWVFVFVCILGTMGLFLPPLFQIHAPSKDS
Chain of α3β2-nAChR (P04757 26-499): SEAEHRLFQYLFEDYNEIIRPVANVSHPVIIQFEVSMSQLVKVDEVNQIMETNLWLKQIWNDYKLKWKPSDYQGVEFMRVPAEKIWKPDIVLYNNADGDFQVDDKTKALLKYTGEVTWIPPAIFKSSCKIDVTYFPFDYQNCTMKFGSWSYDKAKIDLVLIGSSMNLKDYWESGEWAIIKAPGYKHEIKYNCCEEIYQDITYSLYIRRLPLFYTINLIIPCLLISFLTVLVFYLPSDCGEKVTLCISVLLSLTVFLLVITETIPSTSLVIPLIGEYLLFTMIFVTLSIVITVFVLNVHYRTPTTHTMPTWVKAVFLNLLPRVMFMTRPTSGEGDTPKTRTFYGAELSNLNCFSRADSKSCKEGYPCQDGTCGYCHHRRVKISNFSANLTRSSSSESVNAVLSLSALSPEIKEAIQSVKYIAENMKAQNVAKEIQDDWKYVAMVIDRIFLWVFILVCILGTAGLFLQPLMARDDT
Chain of α3β2-nAChR (P12390 25-500): as the sequence (P12390 25-500) above
T4 sequence (P04757 26-499): as the sequence (P04757 26-499) above
T4 sequence (P12392 21-495): as the sequence (P12392 21-495) above
Chain of α2β2-nAChR (P12389 28-511): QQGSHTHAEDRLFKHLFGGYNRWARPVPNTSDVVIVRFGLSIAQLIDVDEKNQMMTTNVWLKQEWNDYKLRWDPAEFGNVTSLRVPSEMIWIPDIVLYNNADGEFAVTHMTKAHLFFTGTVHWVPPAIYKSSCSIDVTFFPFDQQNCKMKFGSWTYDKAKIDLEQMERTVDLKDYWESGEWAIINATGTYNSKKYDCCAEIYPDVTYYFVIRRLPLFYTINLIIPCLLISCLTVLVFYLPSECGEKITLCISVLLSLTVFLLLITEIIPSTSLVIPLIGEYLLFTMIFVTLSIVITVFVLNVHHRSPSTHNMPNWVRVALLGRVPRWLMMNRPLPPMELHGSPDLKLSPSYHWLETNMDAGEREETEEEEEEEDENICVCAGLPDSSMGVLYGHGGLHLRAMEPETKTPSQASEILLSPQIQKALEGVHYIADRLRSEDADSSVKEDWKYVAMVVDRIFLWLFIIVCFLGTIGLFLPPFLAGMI
Chain of α2β2-nAChR (P12390 25-500): as the sequence (P12390 25-500) above
T5 sequence (P12389 28-511): as the sequence (P12389 28-511) above
T5 sequence (P12392 21-495): as the sequence (P12392 21-495) above
Chain of rat a7-nAChR (Q05941 23-502): as the sequence (Q05941 23-502) above

For `O=S1(=O)c2cc(N3CCN4CCC3CC4)ccc2-c2cccc(F)c21` [Compound 7a, 3-(1,4-Diazabicyclo[3.2.2]nonan-4-yl)-6-fluorodibenzo[b,d]thiophene 5,5-Dioxide], the “selectivity α7/α4β2” value (α4β2-nAChR) was 1370, the Ki (α4β2-nAChR; stably transfected HEK293 cells, [3H]epibatidine (0.5 nM)) was 562 nM and the “selectivity α7/5HT3” value (Human 5-HT3) was 561. The Ki (Human 5-HT3; Human 5-HT3 recombinant/HEK293 cells, [3H]GR65630 (0.35 nM)) was 230 nM, the Ki (rat a7-nAChR) was 0.3 nM and the “behavioral / locomotor activity changes” value (α7-nAChR [1]) was “Neither behavioral nor locomotor activity changes were observed”. The Ki (α4β4-nAChR) was 1000 nM, the Ki (α3β4-nAChR) was 709 nM and the Ki (α2β2-nAChR) was > 10000 nM. The Ki (α3β2-nAChR) was 1000 nM, the Ki (α2β4-nAChR) was 4000 nM and the “block of acetylcholine activation” value (rat α7-nAChRs) was “nearly completely blocked activation by acetylcholine”. The Ki (α7-nAChR [2]; read-out: Ki α7-nAChR) was 0.37 nM and 0.45 nM and the Ki (α7-nAChR [2]; read-out: Ki α7-nAChR (text)) was 0.4 nM.
In the case of `O=S1(=O)c2cc(N3CCN4CCC3CC4)ccc2-c2cccc([18F])c21` [[^18F]7a], the baseline-to-blockade ratio (α7-nAChR [1]) is reported as 13, the specific binding value (α7-nAChR [1]) is reported as 94% and the “unchanged parent in the mouse brain” value [3] is reported as “at least 95%”. The “combined radiometabolites in the plasma” value [4] was 70%, the Ki [5] was 0.3 nM and the “binding potential BPND” value (α7-nAChR [6]) was ~1. For the same compound, the “test-retest variability (TRV)” value (α7-nAChR [6]) was 10.8±5.1%, the “VT, lower regions” value (α7-nAChR [6]; male, human) was “G15 ml/ml” and the “VT, relatively high regions” value (α7-nAChR [6]; male, human) was 920 ml/ml. For the same compound, the peak brain uptake (α7-nAChR [6]; male, human) was 400 %SUV, the “time of peak brain uptake” value (α7-nAChR [6]; male, human) was 10 to 15 min and the “acetylcholine-induced whole-cell current restored, of baseline” value (rat α7-nAChRs) was 60%. For the same compound, the “unchanged parent in the mouse blood” value ([7]; after intravenous administration) was “approximately 1%”, the “combined radiometabolites in the plasma” value ([7]; mice, 30 min after injection) was “approximately 99%” and the “time of plasma TAC peak” value [8] was ≤ 1 min. It also gave a parent metabolized ([8]; 0.5 h) of 52.6±12.9%, a parent metabolized ([8]; 1.5 h) of 83.5±9.7% and a Ki (α7-nAChR [2]; Ki α7-nAChR (text)) of 0.4 nM. The “regional brain uptake in mutant DISC1 versus control mice” value (α7-nAChR [9]) was “significantly lower in all regions studied”, the “Approximate BPND, Coll” value (α7-nAChR [10]) was 8.0 and 8.0 ± 1.6 and the “Approximate BPND, Ctx” value (α7-nAChR [10]) was 5.3 and 5.3 ± 1.2. The “Approximate BPND, Hipp” value (α7-nAChR [10]) was 5.5 and 5.5 ± 1.7, the “BPND in control mice” value (α7-nAChR [10]) was 8 and 5.3-8.0 and the “ratios of tissues to cerebellum” value (α7-nAChR [10]; iv) was 10. For the same compound, the “Regional BPND ([VT/VND]−1)” value (a7-nAChR) was 3.9 to 6.6 and 3.9-6.6, the nonspecific binding (a7-nAChR) was “less than 30%” and the specific binding (a7-nAChR) was 80%-90%. For the same compound, the brain uptake (a7-nAChR; male, baboon (Papio anubis)) was 500 % standardized uptake value [SUV] and the “lowest observed VT” value (a7-nAChR; male, baboon (Papio anubis)) was 14 mL/mL.
